Assay results: patent US20150010928A1, “MEANS AND METHODS FOR ASSESSING AN ENDOCRINE DISEASE OR DISORDER” (priority 2012, published 2015)
Marks after values point to notes of the source that are not given here.

System: male rats
Test: Plasma metabolite profiling (GC-MS, LC-MS, SPE-LC-MS) in male rats dosed once daily over 28 days (OECD 407)
Format: in vivo, rat
Design: key to erythro-Sphingoside (d18:1) / Tricosanoic acid (C23:0) / beta-Sitosterol / Tryptophan: ratio of treated group mean to untreated control group mean
Description: Each dose group in the studies consisted of five rats per sex. Additional groups of each 5 male and female animals served as controls. […] All animals of the animal population were kept under the same constant temperature (20-24±3° C.) and the same constant humidity (30-70%). The animals of the animal population were fed ad libitum. The food to be used was essentially free of chemical or microbial contaminants. Drinking water was also offered ad libitum. Accordingly, the water was free of chemical and microbial contaminants as laid down in the European Drinking Water Directive 98/83/EG. The illumination period was 12 hours light followed by 12 hours darkness (12 hours light, from 6:00 to 18:00, and 12 hours darkness, from 18:00 to 6:00). […] The test substances (compounds) in the Tables 1 to 17 below were dosed and administered as described in the Table 18.
In the morning of day 7, 14, and 28, blood was taken from the retroorbital venous plexus from fasted anaesthetized animals. From each animal, 1 ml of blood was collected with EDTA as anticoagulant. The samples were centrifuged for generation of plasma. All plasma samples were covered with a N2 atmosphere and then stored at −80° C. until analysis.
For mass spectrometry-based metabolite profiling analyses plasma samples were extracted and a polar and a non-polar (lipid) fraction was obtained. For GC-MS analysis, the non-polar fraction was treated with methanol under acidic conditions to yield the fatty acid methyl esters. Both fractions were further derivatised with O-methyl-hydroxyamine hydrochloride and pyridine to convert Oxogroups to O-methyloximes and subsequently with a silylating agent before analysis. In LC-MS analysis, both fractions were reconstituted in appropriate solvent mixtures. HPLC was performed by gradient elution on reversed phase separation columns. Mass spectrometric detection which allows target and high sensitivity MRM (Multiple Reaction Monitoring) profiling in parallel to a full screen analysis was applied as described in WO2003073464.
Steroids and their metabolites were measured by online SPE-LC-MS (Solid phase extraction-LC-MS).
Following comprehensive analytical validation steps, the data for each analyte were normalized against data from pool samples. These samples were run in parallel through the whole process to account for process variability. The significance of treatment group values specific for sex, treatmentduration and metabolite was determined by comparing means of the treated groups to the means of the respective untreated control groups using WELCH-test and quantified with treatment ratios versus control and p-values.
The identification of the most important biomarkers per toxicity pattern was done by a ranking of the analytes in the tables below. Therefore the metabolic changes in reference treatments of a given pattern (shown in the table) were compared with changes of the same metabolite in other unrelated treatments. […] The maximum absolute value of the respective TVALUE was taken to indicate the most important metabolite for the pattern.

3-O-Methylsphingosine (d18:1) (m7, high dose, Table 10a): 1.27 *
Nervonic acid (C24:cis[15]1) (m7, high dose, Table 10a): 1.39 *
Stearic acid (C18:0) (m7, high dose, Table 10a): 1.15 *
alpha-Tocopherol (m7, high dose, Table 10a): 1.55 *
threo-Sphingosine (d18:1) (m7, high dose, Table 10a): 1.39 *
Thyroxine (T4) (m7, high dose, Table 10b): 0.46 *
trans-4-Hydroxyproline (m7, high dose, Table 10b): 0.79 *
3-Methoxytyrosine (m7, high dose, Table 11a): 1.97 *
3-O-Methylsphingosine (d18:1) (m7, high dose, Table 11a): 1.27 *
Androstenedione (m7, high dose, Table 11a): 19.42 *
Behenic acid (C22:0) (m7, high dose, Table 11a): 1.89 *
Dodecanol (m7, high dose, Table 11a): 1.2 *
Eicosanoic acid (C20:0) (m7, high dose, Table 11a): 2.11 *
Galactose, lipid fraction (m7, high dose, Table 11a): 1.44 *
Glycerol phosphate, lipid fraction (m7, high dose, Table 11a): 1.57 *
Nervonic acid (C24:cis[15]1) (m7, high dose, Table 11a): 1.39 *
Noradrenaline (Norepinephrine) (m7, high dose, Table 11a): 1.36 *
Phosphatidylcholine (C18:0, C18:2) (m7, high dose, Table 11a): 1.38 *
Phytosphingosine (m7, high dose, Table 11a): 2.29 *
Stearic acid (C18:0) (m7, high dose, Table 11a): 1.15 *
Testosterone (m7, high dose, Table 11a): 10.33 *
Tryptophan (m7, high dose, Table 11a): 1.22 *
dihomo-gamma-Linolenic acid (C20:cis[8,11,14]3) (m7, high dose, Table 11a): 1.55 *
myo-Inositol-2-phosphate, lipid fraction (m7, high dose, Table 11a): 2.52 *
threo-Sphingosine (d18:1) (m7, high dose, Table 11a): 1.39 *
3-Hydroxybutyrate (m7, high dose, Table 11b): 0.53 *
4-Hydroxy-3-methoxyphenylglycol (HMPG) (m7, high dose, Table 11b): 0.67 *
18-Hydroxy-11-deoxycorticosterone (m7, high dose, Table 11b): 0.75^
21-Hydroxyprogesterone (11-Deoxycorticosterone) (m7, high dose, Table 11b): 0.65^
Citrate (m7, high dose, Table 11b): 0.74 *
Coenzyme Q9 (m7, high dose, Table 11b): 0.73 *
Coenzyme Q10 (m7, high dose, Table 11b): 0.58 *
Corticosterone (m7, high dose, Table 11b): 0.83^
Metanephrine (m7, high dose, Table 11b): 0.5 *
Palmitoleic acid (C16:cis[9]1) (m7, high dose, Table 11b): 0.77 *
Progesterone (m7, high dose, Table 11b): 0.64^
trans-4-Hydroxyproline (m7, high dose, Table 11b): 0.79 *
3-O-Methylsphingosine (d18:1) (m14, high dose, Table 10a): 0.78
5-O-Methylsphingosine (d18:1) (m14, high dose, Table 10a): 0.81
Cysteine (m14, high dose, Table 10a): 0.96
Lignoceric acid (C24:0) (m14, high dose, Table 10a): 0.9
Nervonic acid (C24:cis[15]1) (m14, high dose, Table 10a): 0.93
Oleic acid (C18:cis[9]1) (m14, high dose, Table 10a): 1.1
Stearic acid (C18:0) (m14, high dose, Table 10a): 1.01
alpha-Tocopherol (m14, high dose, Table 10a): 1.24
erythro-Sphingoside (d18:1) (m14, high dose, Table 10a): 0.79
threo-Sphingosine (d18:1) (m14, high dose, Table 10a): 0.95
Oleic acid (C18:cis[9]1) (m14, high dose, Table 10b): 1.1
Phosphatidylcholine (C16:0, C16:0) (m14, high dose, Table 10b): 0.7 *
Thyroxine (T4) (m14, high dose, Table 10b): 0.57^
trans-4-Hydroxyproline (m14, high dose, Table 10b): 0.89 *
3-Methoxytyrosine (m14, high dose, Table 11a): 1.47 *
3-O-Methylsphingosine (d18:1) (m14, high dose, Table 11a): 0.78
5-O-Methylsphingosine (d18:1) (m14, high dose, Table 11a): 0.81
Androstenedione (m14, high dose, Table 11a): 46.48 *
Arachidonic acid (C20:cis[5,8,11,14]4) (m14, high dose, Table 11a): 0.99
Cholesterol (m14, high dose, Table 11a): 1.07
Cysteine (m14, high dose, Table 11a): 0.96
Eicosanoic acid (C20:0) (m14, high dose, Table 11a): 1.84 *
Galactose, lipid fraction (m14, high dose, Table 11a): 1.07
Glycerol phosphate, lipid fraction (m14, high dose, Table 11a): 1.18 *
Indole-3-lactic acid (m14, high dose, Table 11a): 1.06
Lignoceric acid (C24:0) (m14, high dose, Table 11a): 0.9
Nervonic acid (C24:cis[15]1) (m14, high dose, Table 11a): 0.93
Noradrenaline (Norepinephrine) (m14, high dose, Table 11a): 1.85 *
Phosphate, lipid fraction (m14, high dose, Table 11a): 1.08
Phosphatidylcholine (C18:0, C18:2) (m14, high dose, Table 11a): 1.17
Phosphatidylcholine (C18:0, C20:3) (m14, high dose, Table 11a): 1.01
Phosphatidylcholine (C18:0, C22:6) (m14, high dose, Table 11a): 0.96
Phosphatidylcholine (C18:0,C18:1) (m14, high dose, Table 11a): 1.15
Stearic acid (C18:0) (m14, high dose, Table 11a): 1.01
Testosterone (m14, high dose, Table 11a): 16.89 *
Tricosanoic acid (C23:0) (m14, high dose, Table 11a): 0.9
Tryptophan (m14, high dose, Table 11a): 1.15
alpha-Tocopherol (m14, high dose, Table 11a): 1.16
beta-Sitosterol (m14, high dose, Table 11a): 0.91
dihomo-gamma-Linolenic acid (C20:cis[8,11,14]3) (m14, high dose, Table 11a): 1.46 *
erythro-Sphingosine (d18:1) (m14, high dose, Table 11a): 0.79
threo-Sphingosine (d18:1) (m14, high dose, Table 11a): 0.95
3-Hydroxybutyrate (m14, high dose, Table 11b): 0.72 *
4-Hydroxy-3-methoxyphenylglycol (HMPG) (m14, high dose, Table 11b): 0.7 *
18-Hydroxy-11-deoxycorticosterone (m14, high dose, Table 11b): 0.48 *
21-Hydroxyprogesterone (11-Deoxycorticosterone) (m14, high dose, Table 11b): 0.31 *
Citrate (m14, high dose, Table 11b): 0.88 *
Coenzyme Q10 (m14, high dose, Table 11b): 0.43 *
Corticosterone (m14, high dose, Table 11b): 0.38 *
Metanephrine (m14, high dose, Table 11b): 0.61 *
Palmitoleic acid (C16:cis[9]1) (m14, high dose, Table 11b): 0.68 *
Phosphatidylcholine (C16:0, C16:0) (m14, high dose, Table 11b): 0.7 *
Progesterone (m14, high dose, Table 11b): 0.33 *
trans-4-Hydroxyproline (m14, high dose, Table 11b): 0.89 *
3-O-Methylsphingosine (d18:1) (m28, high dose, Table 10a): 1.52^
Cysteine (m28, high dose, Table 10a): 1.41 *
Lignoceric acid (C24:0) (m28, high dose, Table 10a): 1.3 *
Nervonic acid (C24:cis[15]1) (m28, high dose, Table 10a): 1.46 *
alpha-Tocopherol (m28, high dose, Table 10a): 1.54 *
threo-Sphingosine (d18:1) (m28, high dose, Table 10a): 1.38 *
Phosphatidylcholine (C16:0, C16:0) (m28, high dose, Table 10b): 0.81 *
Thyroxine (T4) (m28, high dose, Table 10b): 0.72^
trans-4-Hydroxyproline (m28, high dose, Table 10b): 0.72 *
3-Methoxytyrosine (m28, high dose, Table 11a): 1.55 *
3-O-Methylsphingosine (d18:1) (m28, high dose, Table 11a): 1.52 *
Androstenedione (m28, high dose, Table 11a): 18.79 *
Behenic acid (C22:0) (m28, high dose, Table 11a): 1.34 *
Cholesterol (m28, high dose, Table 11a): 1.22 *
Cysteine (m28, high dose, Table 11a): 1.41 *
Eicosanoic acid (C20:0) (m28, high dose, Table 11a): 1.93 *
Histidine (m28, high dose, Table 11a): 0.98^
Lignoceric acid (C24:0) (m28, high dose, Table 11a): 1.3 *
Nervonic acid (C24:cis[15]1) (m28, high dose, Table 11a): 1.46 *
Noradrenaline (Norepinephrine) (m28, high dose, Table 11a): 0.93^
Phosphatidylcholine (C18:0, C20:3) (m28, high dose, Table 11a): 0.94^
Phosphatidylcholine (C18:0, C22:6) (m28, high dose, Table 11a): 1.34 *
Testosterone (m28, high dose, Table 11a): 8.45 *
Threonine (m28, high dose, Table 11a): 1.22 *
alpha-Tocopherol (m28, high dose, Table 11a): 1.19^
beta-Sitosterol (m28, high dose, Table 11a): 0.89^
dihomo-gamma-Linolenic acid (C20:cis[8,11,14]3) (m28, high dose, Table 11a): 2.58 *
myo-Inositol-2-phosphate, lipid fraction (m28, high dose, Table 11a): 1.44 *
threo-Sphingosine (d18:1) (m28, high dose, Table 11a): 1.38 *
4-Hydroxy-3-methoxyphenylglycol (HMPG) (m28, high dose, Table 11b): 0.8 *
18-Hydroxy-11-deoxycorticosterone (m28, high dose, Table 11b): 0.07 *
21-Hydroxyprogesterone (11-Deoxycorticosterone) (m28, high dose, Table 11b): 0.26 *
Citrate (m28, high dose, Table 11b): 0.9
Coenzyme Q9 (m28, high dose, Table 11b): 0.95^
Coenzyme Q10 (m28, high dose, Table 11b): 0.4 *
Corticosterone (m28, high dose, Table 11b): 0.07 *
Metanephrine (m28, high dose, Table 11b): 0.48 *
Palmitoleic acid (C16:cis[9]1) (m28, high dose, Table 11b): 0.6 *
Phosphatidylcholine (C16:0, C16:0) (m28, high dose, Table 11b): 0.81 *
Progesterone (m28, high dose, Table 11b): 0.25 *
trans-4-Hydroxyproline (m28, high dose, Table 11b): 0.72 *
3-Hydroxybutyrate (rat, in vivo): 1.08^
Behenic acid (C22:0) (rat, in vivo): 1.12 *
Cholesterol (rat, in vivo): 1.43 *
Coenzyme Q9 (rat, in vivo): 1.04^
Cysteine (rat, in vivo): 1.21^
Galactose, lipid fraction (rat, in vivo): 1.23 *
Glycerol phosphate, lipid fraction (rat, in vivo): 1.28 *
Lignoceric acid (C24:0) (rat, in vivo): 1.43 *
Phosphatidylcholine (C16:0, C16:0) (rat, in vivo): 1.12^
Phosphatidylcholine (C18:0, C18:2) (rat, in vivo): 1.13^
Phosphatidylcholine (C18:0, C20:3) (rat, in vivo): 1.14 *
Phosphatidylcholine (C18:0, C22:6) (rat, in vivo): 1.01^
Stearic acid (C18:0) (rat, in vivo): 1.29 *
Tryptophan (rat, in vivo): 1.08 *
alpha-Tocopherol (rat, in vivo): 1.43 *
beta-Sitosterol (rat, in vivo): 1.24 *
myo-Inositol-2-phosphate, lipid fraction (rat, in vivo): 1.06 *
SMILES: CC(C)C(=O)Nc1ccc([N+](=O)[O-])c(C(F)(F)F)c1 [Flutamide]
